Experimental data published in patent US20140356383A1, “ADMINISTRATION OF AN ANTI-GCC ANTIBODY-DRUG CONJUGATE AND A DNA DAMAGING AGENT IN THE TREATMENT OF CANCER” (priority 2013, published 2014).
Square brackets hold non-standard residues; d marks the D form. Peptide text beside a SMILES is read from it. * marks the point of attachment. Dolaproine = CO[C@@H]([C@@H]1CCCN1)[C@@H](C)C(=O)O; Hexanoyl(6-maleimido) = O=C1C=CC(=O)N1CCCCCC(=O)*; Dil = CC[C@H](C)[C@H](NC)[C@@H](CC(=O)O)OC; NMeV = CN[C@H](C(=O)O)C(C)C

Key:
PHTX-09c s.c. xenograft [1] = assay: 5F9 vcMMAE and cisplatin in PHTX-09c s.c. xenografts (Study CPGC-11-EF05)
PHTX-21c s.c. xenograft = assay: MLN0264 and CPT-11 in PHTX-21C s.c. xenografts (Study CPGC-11-EF04); settings: PHTX-21c
PHTX-09c s.c. xenograft [2] = assay: 5F9 vcMMAE and CPT-11 in PHTX-09C s.c. xenografts (Study CPGC-11-EF07)
PHTX-17c s.c. xenograft = assay: MLN0264 and CPT-11 in PHTX-17C s.c. xenografts (Study CPGC-11-EF06); assay type: in vivo, CB-17 SCID mice; settings: PHTX-17c
Experimental: Tumor volume was calculated using the formula: […]

PHTX-11c s.c. xenograft = assay: MLN0264 and CPT-11 in PHTX-11c s.c. xenografts (Study CPGC-12-EF01); settings: W1-W3
293 GCC#2 tumors = assay: Efficacy study with auristatin conjugates in 293 GCC#2 tumors, q7d×4; assay type: in vivo, SCID mice; settings: 150 μg/kg iv q7d×4
Experimental: 293 GCC#2 tumor-bearing SCID mice were treated with 5F9 conjugates with vc MMAE, vcMMAF or mcMMAF at three doses in comparison with 209 conjugates of these toxins or with free toxins or vehicle control. Doses were administered iv on a q7d×4 schedule. Tumors were harvested at days 3, 7, 10, 13 and 17. […] Table 18 provides a summary of the results (TGI=tumor growth inhibition, T/C=treatment/control, TGD=tumor growth delay, CR/PR=complete response/partial response; p value=measure to judge statistical significance, NS=not significant).

[3] = CPT-11 10 mg/kg D1, D2 per week
[4] = CPT-11 15 mg/kg D1, D2 per week
[5] = PHTX-09c, CPT-11 10 mg/kg D1, 2 ×3 weeks
[6] = CPT-11 10 mg/kg 2 d on 5 off i.v.
[7] = CPT-11 15 mg/kg 2 d on 5 off i.v.

Compound: N.N.[Cl][Pt][Cl] [cisplatin]
- number of doses tolerated (PHTX-09c s.c. xenograft [1]; 4 mg/kg once weekly): 2 doses
- number of doses tolerated (PHTX-09c s.c. xenograft [1]; 6 mg/kg once weekly): 1 dose
- body weight loss (PHTX-09c s.c. xenograft [1]; PHTX-09c, cisplatin alone): > 15%
- dAUC (PHTX-09c s.c. xenograft [1]; group C: cisplatin 4 mg/kg QW x2, reference vehicle): 50.6%

Compound: CCc1c2c(nc3ccc(OC(=O)N4CCC(N5CCCCC5)CC4)cc13)-c1cc3c(c(=O)n1C2)COC(=O)[C@]3(O)CC [CPT-11, irinotecan]
- Days to 1000 mm^3 (PHTX-21c s.c. xenograft; [3]): >15 days
- T/C (PHTX-21c s.c. xenograft; [3]): 0.22
- TGI (PHTX-21c s.c. xenograft; [3]): 78.4%
- Days to 1000 mm^3 (PHTX-21c s.c. xenograft; [4]): >15 days
- T/C (PHTX-21c s.c. xenograft; [4]): 0.16
- TGI (PHTX-21c s.c. xenograft; [4]): 84.4%
- Days to 1000 mm^3 (PHTX-21c s.c. xenograft; CPT-11 30 mg/kg D1 QW): >15 days
- T/C (PHTX-21c s.c. xenograft; CPT-11 30 mg/kg D1 QW): 0.37
- TGI (PHTX-21c s.c. xenograft; CPT-11 30 mg/kg D1 QW): 62.8%
- single agent anti-tumor activity (PHTX-21c s.c. xenograft; the two lower doses administered (10 and 15 mg/kg)): moderate to high single agent activity
- single agent activity (PHTX-09c s.c. xenograft [2]; PHTX-09c (FIGS. 8B and 8C)): moderate
- Days to 1000 mm^3 (PHTX-09c s.c. xenograft [2]; [5]): >23 days
- T/C (PHTX-09c s.c. xenograft [2]; [5]): 0.4
- TGI (PHTX-09c s.c. xenograft [2]; [5]): 60.3%
- Days to 1000 mm^3 (PHTX-17c s.c. xenograft; CPT-11 10 mg/kg QD 2on 5off): >17 days
- T/C (PHTX-17c s.c. xenograft; CPT-11 10 mg/kg QD 2on 5off): 0.28
- TGI (PHTX-17c s.c. xenograft; CPT-11 10 mg/kg QD 2on 5off): 71.7%
- Days to 1000 mm^3 (PHTX-17c s.c. xenograft; CPT-11 15 mg/kg 2 on 5off): >17 days
- T/C (PHTX-17c s.c. xenograft; CPT-11 15 mg/kg 2 on 5off): 0.22
- TGI (PHTX-17c s.c. xenograft; CPT-11 15 mg/kg 2 on 5off): 77.7%
- Days to 1000 mm^3 (PHTX-17c s.c. xenograft; CPT-11 30 mg/kg QW): >17 days
- T/C (PHTX-17c s.c. xenograft; CPT-11 30 mg/kg QW): 0.4
- TGI (PHTX-17c s.c. xenograft; CPT-11 30 mg/kg QW): 60.5%
- Days to 1000 mm^3 (PHTX-11c s.c. xenograft; [6]): >18 days
- T/C (PHTX-11c s.c. xenograft; [6]): 0.34
- TGI (PHTX-11c s.c. xenograft; [6]): 65.9%
- Days to 1000 mm^3 (PHTX-11c s.c. xenograft; [7]): >18 days
- T/C (PHTX-11c s.c. xenograft; [7]): 0.31
- TGI (PHTX-11c s.c. xenograft; [7]): 69.2%
- Days to 1000 mm^3 (PHTX-11c s.c. xenograft; CPT-11 30 mg/kg (D1 QW) i.v.): >18 days
- T/C (PHTX-11c s.c. xenograft; CPT-11 30 mg/kg (D1 QW) i.v.): 0.39
- TGI (PHTX-11c s.c. xenograft; CPT-11 30 mg/kg (D1 QW) i.v.): 61.1%

Compound: CC[C@H](C)[C@@H]([C@@H](CC(=O)N1CCC[C@H]1[C@H](OC)[C@@H](C)C(=O)N[C@@H](Cc1ccccc1)C(=O)O)OC)N(C)C(=O)[C@@H](NC(=O)[C@H](C(C)C)N(C)C(=O)CCCCCN1C(=O)C=CC1=O)C(C)C [Free mcMMAF, reference compound] ({Hexanoyl(6-maleimido)}-[NMeV]V[Dil][Dolaproine]F-OH)
- TGI (293 GCC#2 tumors): −3.4
- CR/PR (293 GCC#2 tumors; complete response/partial response): 0
- T/C (293 GCC#2 tumors; treatment/control): 1.03
- TGD (293 GCC#2 tumors; tumor growth delay): −1.3
